Source: the supplement of paper PMC10307832

Legend:
Assay in all cases: relative viability (nuclei count vs DMSO), 5 days (fraction); higher = more cells survive
NCI-H2405 = tested on: NCI-H2405
Outline: (§1)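 Lung cancer cell lines were pin-tool dosed in 1536-well plates on the day after seeding, with either a lone drug or a fixed anchor-drug dose plus five library-drug doses (not always all listed) in √10 steps. Nuclei were counted on 4× images after 5 days. Relative viability is the ratio of treated-well to vehicle-well nuclei counts, with each value a median of duplicate plates.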

COR-L23 = tested on: COR-L23
Outline: as §1

NCI-H2023 = tested on: NCI-H2023
Outline: as §1

NCI-H2126 = tested on: NCI-H2126
Outline: as §1

NCI-H838 = tested on: NCI-H838
Outline: as §1

NCI-H1395 = tested on: NCI-H1395
Outline: as §1

HARA = tested on: HARA
Outline: as §1

HCC-15 = tested on: HCC-15
Outline: as §1

HOP-62 = tested on: HOP-62
Outline: as §1

NCI-H1793 = tested on: NCI-H1793
Outline: as §1

EMC-BAC-2 = tested on: EMC-BAC-2
Outline: as §1

HCC-78 = tested on: HCC-78
Outline: as §1

SK-LU-1 = tested on: SK-LU-1
Outline: as §1

NCI-H1944 = tested on: NCI-H1944
Outline: as §1

LC-2-ad = tested on: LC-2-ad
Outline: as §1

NCI-H23 = tested on: NCI-H23
Outline: as §1

HCC-366 = tested on: HCC-366
Outline: as §1

NCI-H358 = tested on: NCI-H358
Outline: as §1

NCI-H1993 = tested on: NCI-H1993
Outline: as §1

NCI-H2228 = tested on: NCI-H2228
Outline: as §1

ChaGo-K-1 = tested on: ChaGo-K-1
Outline: as §1

Q: Which results are given for `Cc1sc2c(c1C)C(c1ccc(Cl)cc1)=N[C@@H](CC(=O)OC(C)(C)C)c1nnc(C)n1-2` [JQ1] + CC(=O)Nc1cccc(-n2c(=O)n(C3CC3)c(=O)c3c(Nc4ccc(I)cc4F)n(C)c(=O)c(C)c32)c1 [Trametinib] (partner 0.02 µM)?
A: relative viability (NCI-H2405; first compound 0.04 µM): 0.627; relative viability (NCI-H2405; first compound 0.4 µM): 0.601; relative viability (NCI-H2405; first compound 1.265 µM): 0.422; relative viability (NCI-H2405; first compound 4 µM): 0.332; relative viability (COR-L23; first compound 0.04 µM): 0.562; relative viability (COR-L23; first compound 0.1265 µM): 0.497; relative viability (COR-L23; first compound 0.4 µM): 0.55; relative viability (COR-L23; first compound 1.265 µM): 0.342; relative viability (COR-L23; first compound 4 µM): 0.29; relative viability (NCI-H2023; first compound 0.04 µM): 0.472; relative viability (NCI-H2023; first compound 0.1265 µM): 0.394; relative viability (NCI-H2023; first compound 0.4 µM): 0.248; relative viability (NCI-H2023; first compound 1.265 µM): 0.162; relative viability (NCI-H2023; first compound 4 µM): 0.137; relative viability (NCI-H2126; first compound 0.04 µM): 0.521; relative viability (NCI-H2126; first compound 0.1265 µM): 0.549; relative viability (NCI-H2126; first compound 0.4 µM): 0.486; relative viability (NCI-H2126; first compound 1.265 µM): 0.368; relative viability (NCI-H2126; first compound 4 µM): 0.416; relative viability (NCI-H838; first compound 0.04 µM): 0.521; relative viability (NCI-H838; first compound 0.1265 µM): 0.267; relative viability (NCI-H838; first compound 0.4 µM): 0.375; relative viability (NCI-H838; first compound 1.265 µM): 0.293; relative viability (NCI-H838; first compound 4 µM): 0.202; relative viability (NCI-H1395; first compound 0.04 µM): 1.03; relative viability (NCI-H1395; first compound 0.1265 µM): 0.991; relative viability (NCI-H1395; first compound 0.4 µM): 0.912; relative viability (NCI-H1395; first compound 1.265 µM): 0.628; relative viability (NCI-H1395; first compound 4 µM): 0.578; relative viability (HARA; first compound 0.04 µM): 0.72; relative viability (HARA; first compound 0.1265 µM): 0.411; relative viability (HARA; first compound 0.4 µM): 0.174; relative viability (HARA; first compound 1.265 µM): 0.184; relative viability (HARA; first compound 4 µM): 0.304; relative viability (HCC-15; first compound 0.04 µM): 0.376; relative viability (HCC-15; first compound 0.4 µM): 0.338; relative viability (HCC-15; first compound 1.265 µM): 0.31; relative viability (HCC-15; first compound 4 µM): 0.28; relative viability (HOP-62; first compound 0.04 µM): 0.307; relative viability (HOP-62; first compound 0.1265 µM): 0.262; relative viability (HOP-62; first compound 0.4 µM): 0.156; relative viability (HOP-62; first compound 1.265 µM): 0.119; relative viability (HOP-62; first compound 4 µM): 0.106; relative viability (NCI-H1793; first compound 0.04 µM): 0.483; relative viability (NCI-H1793; first compound 0.1265 µM): 0.429; relative viability (NCI-H1793; first compound 0.4 µM): 0.595; relative viability (NCI-H1793; first compound 1.265 µM): 0.481; relative viability (NCI-H1793; first compound 4 µM): 0.5; relative viability (EMC-BAC-2; first compound 0.04 µM): 0.935; relative viability (EMC-BAC-2; first compound 0.4 µM): 0.881; relative viability (EMC-BAC-2; first compound 1.265 µM): 0.586; relative viability (EMC-BAC-2; first compound 4 µM): 0.366; relative viability (HCC-78; first compound 0.04 µM): 0.791; relative viability (HCC-78; first compound 0.1265 µM): 0.603; relative viability (HCC-78; first compound 0.4 µM): 0.572; relative viability (HCC-78; first compound 1.265 µM): 0.462; relative viability (HCC-78; first compound 4 µM): 0.367; relative viability (SK-LU-1; first compound 0.04 µM): 0.509; relative viability (SK-LU-1; first compound 0.1265 µM): 0.444; relative viability (SK-LU-1; first compound 0.4 µM): 0.434; relative viability (SK-LU-1; first compound 1.265 µM): 0.359; relative viability (SK-LU-1; first compound 4 µM): 0.195; relative viability (NCI-H1944; first compound 0.04 µM): 0.409; relative viability (NCI-H1944; first compound 0.1265 µM): 0.394; relative viability (NCI-H1944; first compound 0.4 µM): 0.305; relative viability (NCI-H1944; first compound 1.265 µM): 0.288; relative viability (NCI-H1944; first compound 4 µM): 0.278; relative viability (LC-2-ad; first compound 0.04 µM): 0.866; relative viability (LC-2-ad; first compound 0.1265 µM): 0.918; relative viability (LC-2-ad; first compound 0.4 µM): 0.708; relative viability (LC-2-ad; first compound 1.265 µM): 0.479; relative viability (LC-2-ad; first compound 4 µM): 0.303; relative viability (NCI-H23; first compound 0.04 µM): 0.348; relative viability (NCI-H23; first compound 0.1265 µM): 0.268; relative viability (NCI-H23; first compound 0.4 µM): 0.256; relative viability (NCI-H23; first compound 1.265 µM): 0.201; relative viability (NCI-H23; first compound 4 µM): 0.173; relative viability (HCC-366; first compound 0.04 µM): 0.407; relative viability (HCC-366; first compound 0.4 µM): 0.372; relative viability (HCC-366; first compound 1.265 µM): 0.235; relative viability (HCC-366; first compound 4 µM): 0.237; relative viability (NCI-H358; first compound 0.04 µM): 0.148; relative viability (NCI-H358; first compound 0.1265 µM): 0.143; relative viability (NCI-H358; first compound 0.4 µM): 0.122; relative viability (NCI-H358; first compound 1.265 µM): 0.133; relative viability (NCI-H358; first compound 4 µM): 0.127; relative viability (NCI-H1993; first compound 0.04 µM): 0.465; relative viability (NCI-H1993; first compound 0.1265 µM): 0.461; relative viability (NCI-H1993; first compound 0.4 µM): 0.541; relative viability (NCI-H1993; first compound 1.265 µM): 0.542; relative viability (NCI-H1993; first compound 4 µM): 0.57; relative viability (NCI-H2228; first compound 0.04 µM): 0.483; relative viability (NCI-H2228; first compound 0.1265 µM): 0.396; relative viability (NCI-H2228; first compound 0.4 µM): 0.424; relative viability (NCI-H2228; first compound 1.265 µM): 0.276; relative viability (NCI-H2228; first compound 4 µM): 0.181; relative viability (ChaGo-K-1; first compound 0.04 µM): 0.943; relative viability (ChaGo-K-1; first compound 0.1265 µM): 0.928; relative viability (ChaGo-K-1; first compound 0.4 µM): 0.797; relative viability (ChaGo-K-1; first compound 1.265 µM): 0.641; relative viability (ChaGo-K-1; first compound 4 µM): 0.483
